Values joined by “and” are separate entries in the source; they are usually repeats but may differ in a detail not shown here. Equal entries are not always repeated. Where two headings read alike, the source gives them in different places.
Experiments:
[1] = Determination of KL-Z (lactone-zwitterion equilibrium constant); assay type: physicochemical; set-up: key: KL-Z = (εdw/εmax)/(1−εdw/εmax); εdw measured in 1:1 dioxane/water; conditions: 1:1 dioxane:H2O
Method: KL-Z was calculated using the following equation:^16, 18 KL-Z=(εdw/εmax)/(1−εdw/εmax). εdw is the extinction coefficient of the dyes in a 1:1 (v/v) dioxane/water solvent mixture; this dioxane/water mixture was chosen to give the maximum spread of KL-Z values across all classes of rhodamines.^18 εmax refers to the maximal extinction coefficients measured in different solvent mixtures empirically determined depending on dye type: 0.1% v/v trifluoroacetic acid in ethanol for 18, 20, 29, 34, 36, 70-72, 81-83, 93-95, 99-102, and 104; 0.1% v/v trifluoroacetic acid in 2,2,2^−trifluoroethanol for all other rhodamine variants. A accurate determination of low KL-Z values is complicated by the relatively poor sensitivity of absorbance measurements.

[2] = General UV-vis and fluorescence spectroscopy; assay type: physicochemical; conditions: 10 mM HEPES, pH 7.3
Method: Spectroscopy was performed using 1^−cm path length, 3.5^−mL quartz cuvettes or 1^−cm path length, 1.4^−mL semi-micro quartz cuvettes from Starna Cells. All measurements were taken at ambient temperature (22±2° C.). Absorption spectra were recorded on a Cary Model 100 spectrometer (Agilent), and fluorescence spectra were recorded on a Cary Eclipse fluorometer (Varian). The spectra, maximum absorption wavelength (labs), extinction coefficient at λabs (8), and maximum emission wavelength (em) were measured in 10 mM HEPES, pH 7.3 buffer (rhodamines and Malachite Green derivative 49) or 0.1 M NaOH (fluoresceins); the reported values for e are averages (n=3). Normalized spectra are shown for clarity.

[3] = Quantum yield determination; assay type: physicochemical; conditions: 10 mM HEPES, pH 7.3
Method: All reported absolute fluorescence quantum yield values (Φf) were measured using a Quantaurus-QY spectrometer (model C11374, Hamamatsu). This instrument uses an integrating sphere to determine photons absorbed and emitted by a sample. Measurements were carried out using dilute samples (A<0.1), and self-absorption corrections were performed using the instrument software.^81

[4] = rhodamine derivatives; 10 mM HEPES, pH 7.3; data from the inventors' published work; cited from earlier work

| KL-Z ([1]; rhodamine derivatives) | ε ([2]; rhodamine derivatives) | λabs ([2]; rhodamine derivatives) | λem ([2]; rhodamine derivatives) [nm] | Φf ([3]; rhodamine derivatives) | Molecule | KL-Z ([1]; quinolinyl rhodamines) | ε ([2]; quinolinyl rhodamines) | λabs ([2]; quinolinyl rhodamines) [nm] | λem ([2]; quinolinyl rhodamines) [nm] | Φf ([3]; quinolinyl rhodamines) | λabs [4] [nm] |
| --- | --- | --- | --- | --- | --- | --- | --- | --- | --- | --- | --- |
| – | – | – | – | – | CC1CC(C)(C)Nc2cc3c(cc21)C(c1c(F)c(F)c(F)c(F)c1C(=O)O)=c1cc2c(cc1O3)=NC(C)(C)CC2C (mixture of isomers) [compound 18, JF563] | 15.3 | 125,000 M^−1cm^−1 | 563 | 581 | 0.73 | – |
| 7.50 | 124,000 M^−1cm^−1 | 576 nm | 597 | 0.71 | [2H]C1([2H])N(c2ccc3c(-c4c(F)c(F)c(F)c(F)c4C(=O)[O-])c4ccc(=[N+]5C([2H])([2H])C([2H])([2H])C([2H])([2H])C5([2H])[2H])cc-4oc3c2)C([2H])([2H])C([2H])([2H])C1([2H])[2H] [compound 8, JFX576] | – | – | – | – | – | – |
| – | – | – | – | – | CC1=CC(C)(C)N(C)c2cc3c(cc21)C(c1c(F)c(F)c(F)c(F)c1C(=O)[O-])=c1cc2c(cc1O3)=[N+](C)C(C)(C)C=C2C [compound 11, 2,3,4,5^−Tetrafluoro-6^−(1,2,2,4,8,10,10,11^−octamethyl-1,2,10,11-tetrahydropyrano[3,2^−g:5,6^−g]diquinolin-13^−ium-6^−yl)benzoate] | 7.88 | 121,000 M^−1cm^−1 | 610 | 630 | 0.68 | – |
| 13.4 | 110,000 M^−1cm^−1 | 597 nm | 616 | 0.67 | O=C([O-])c1c(F)c(F)c(F)c(F)c1C1=c2cc3c4c(c2Oc2c1cc1c5c2CCCN5CCC1)CCC[N+]=4CCC3 [compound 16, 4,5,6,7^−Tetrafluoro-rhodamine 101] | – | – | – | – | – | – |
| – | – | – | – | – | CC1=CC(C)(C)Nc2cc3[o+]c4cc5c(cc4c(-c4c(F)c(F)c(F)c(F)c4C(=O)[O-])c3cc21)C(C)=CC(C)(C)N5 [compound 20, 2,3,4,5^−Tetrafluoro-6^−(2,2,4,8,10,10^−hexamethyl-1,2,10,11-tetrahydropyrano[3,2^−g:5,6^−g]diquinolin-13^−ium-6^−yl)benzoate] | 7.65 | 117,000 M^−1cm^−1 | 596 | 614 | 0.64 | – |
| – | – | – | – | – | CC1CC(C)(C)Nc2cc3c(cc21)C(c1c(F)c(F)c(F)c(F)c1C(=O)O)=c1cc2c(cc1[Si]3(C)C)=NC(C)(C)CC2C (centres unmarked) [compound 34, 2,3,4,5^−Tetrafluoro-6^−(2,2,4,8,10,10,13,13^−octamethyl-2,3,4,8,9,10,11,13^−octahydrosilino[3,2^−g:5,6^−g]diquin-olin-6^−ylium-6(1H)-yl)benzoate] | 1.90 | 129,000 M^−1cm^−1 | 660 | 676 | 0.28 | – |
| – | – | – | – | – | CC1=CC(C)(C)Nc2cc3c(cc21)C(c1c(F)c(F)c(F)c(F)c1C(=O)O)=c1cc2c(cc1[Si]3(C)C)=NC(C)(C)C=C2C [compound 36, 2,3,4,5^−Tetrafluoro-6^−(2,2,4,8,10,10,13,13^−octamethyl-2,10,11,13-tetrahydrosilino[3,2^−g:5,6^−g]diquinolin-6^−ylium-6(1H)-yl)benzoate] | 1.09 | 85,900 M^−1cm^−1 | 713 | 742 | – | – |
| – | – | – | – | – | CC1=CC(C)(C)N(C)c2cc3c(cc21)C(c1c(F)c(F)c(F)c(F)c1C(=O)[O-])=c1cc2c(cc1[Si]3(C)C)=[N+](C)C(C)(C)C=C2C [compound 38, 2^−(1,2,2,4,8,10,10,11,13,13^−Decamethyl-2,10,11,13-tetrahydrosilino[3,2^−g:5,6^−g]diquinolin-6^−ylium-6(1H)-yl)-3,4,5,6^−tetrafluorobenzoate] | 0.3251 | 5,700 M^−1cm^−1 | 754 | 774 | – | – |
| 10.8 | 124,000 M^−1cm^−1 | 621 nm | 638 | 0.37 | CCC1=CC2=C(c3c(F)c(F)c(F)c(F)c3C(=O)O)c3cc4c(cc3C(C)(C)C2=CC1=NC)NCCC4 [compound 47, 4,5,6,7^−Tetrafluoro-carbo-Q-rhodamine] | – | – | – | – | – | – |
| 7.55 | 148,000 M^−1cm^−1 | 660 nm | 673 | 0.54 | CCc1cc2c(c3c1=[N+](C)CCC3)C(C)(C)c1c(cc3c4c1CCCN4CCC3)C=2c1c(F)c(F)c(F)c(F)c1C(=O)[O-] [compound 57, JF660] | – | – | – | – | – | – |
| 4.97 | 137,000 M^−1cm^−1 | 657 nm | 672 | 0.50 | CCc1cc2c(c3c1=[N+](C)CCC3)C(C)(C)c1cc3c(cc1C=2c1c(F)c(F)c(F)c(F)c1C(=O)[O-])C(C)CC(C)(C)N3CC (centres unmarked) [compound 59, JF657] | – | – | – | – | – | – |
| 0.344 | 2,700 M^−1cm^−1 | 645 nm | – | – | C=C/C=C(C=C)/[N+](C)=C1\C=CC2=C(c3c(F)c(F)c(F)c(F)c3C(=O)[O-])c3ccc(N(C)c4ccccc4)cc3C(C)(C)C2=C1 [compound 65, JQ645] | – | – | – | – | – | – |
| 9.81 | 84,500 M^−1cm^−1 | 516 nm | 536 | 0.64 | N=c1ccc2c(-c3c(F)c(F)c(F)c(F)c3C(=O)O)c3ccc(N)cc3oc-2c1 [compound 70, 4,5,6,7^−Tetrafluoro-rhodamine 110] | – | – | – | – | – | – |
| 0.832 | 96,400 M^−1cm^−1 | 575 nm | 597 | 0.53 | CC1(C)C2=CC(=N)C=CC2=C(c2c(F)c(F)c(F)c(F)c2C(=O)O)c2ccc(N)cc21 [compound 71, 4,5,6,7^−Tetrafluoro-carborhodamine 110] | – | – | – | – | – | – |
| 1.51 | 101,000 M^−1cm^−1 | 598 nm | 620 | 0.51 | CCC1=CC2=C(c3ccccc3C(=O)O)c3cc4c(cc3C(C)(C)C2=CC1=NC)NCCC4 [compound 94, Carbo-Q-rhodamine] | – | – | – | – | – | – |
| – | – | – | – | – | CC1=CC(C)(C)Nc2cc3c(cc21)C(c1ccccc1C(=O)O)=c1cc2c(cc1[Si]3(C)C)=NC(C)(C)C=C2C [compound 102, 2^−(2,2,4,8,10,10,13,13-Octamethyl-2,10,11,13-tetrahydrosilino[3,2^−g:5,6^−g]diquinolin-6^−ylium-6(1H)-yl)-benzoate] | 0.0143 | 4,800 M^−1cm^−1 | 686 | 711 | – | – |
| – | – | – | – | – | CC1=CC(C)(C)N(C)c2cc3c(cc21)C(c1ccccc1C(=O)[O-])=c1cc2c(cc1[Si]3(C)C)=[N+](C)C(C)(C)C=C2C [compound 104, 2^−(1,2,2,4,8,10,10,11,13,13^−Decamethyl-2,10,11,13-tetrahydrosilino[3,2^−g:5,6^−g′]diquinolin-6^−ylium-6(1H)-yl)-benzoate] | 0.0045 | 1,200 M^−1cm^−1 | 720 | 740 | – | – |
| – | – | – | – | – | Si-Q-rhodamine [compound 95] | – | – | – | – | – | 637 |

| Molecule | KL-Z ([1]; rhodamine derivatives) | ε ([2]; rhodamine derivatives) | λabs ([2]; rhodamine derivatives) | λem ([2]; rhodamine derivatives) [nm] | Φf ([3]; rhodamine derivatives) | KL-Z ([1]; quinolinyl rhodamines) | ε ([2]; quinolinyl rhodamines) | λabs ([2]; quinolinyl rhodamines) [nm] | λem ([2]; quinolinyl rhodamines) [nm] | Φf ([3]; quinolinyl rhodamines) | λabs [4] [nm] |
| --- | --- | --- | --- | --- | --- | --- | --- | --- | --- | --- | --- |
| O=C([O-])c1c(F)c(F)c(F)c(F)c1-c1c2cc3c(cc2[o+]c2cc4c(cc12)CCCN4)NCCC3 [compound 14, 4,5,6,7^−Tetrafluoro-Q-rhodamine] | 8.57 | 118,000 M^−1cm^−1 | 558 nm | 576 | 0.80 | – | – | – | – | – | – |
| [2H]C1([2H])N(c2ccc3c(c2)[Si](C)(C)C2=CC(=[N+]4C([2H])([2H])C([2H])([2H])C([2H])([2H])C4([2H])[2H])C=CC2=C3c2c(F)c(F)c(F)c(F)c2C(=O)[O-])C([2H])([2H])C([2H])([2H])C1([2H])[2H] [compound 25, JFX673] | 1.56 | 156,000 M^−1cm^−1 | 673 nm | 690 | 0.42 | – | – | – | – | – | – |
| CCC1=CC2=C(c3c(F)c(F)c(F)c(F)c3C(=O)O)c3cc4c(cc3[Si](C)(C)C2=CC1=NC)NCCC4 [compound 29, 4,5,6,7^−Tetrafluoro-Si-Q-rhodamine] | 2.39 | 124,000 M^−1cm^−1 | 659 nm and 689 nm | 675 | 0.25 | – | – | – | – | – | – |
| CCc1cc2c(c3c1=[N+](C)CCC3)[Si](C)(C)c1c(cc3c4c1CCCN4CCC3)C=2c1c(F)c(F)c(F)c(F)c1C(=O)[O-] [compound 31, JF698] | – | 147,000 M^−1cm^−1 | 698 nm | 712 | 0.28 | – | – | – | – | – | – |
| C[Si]1(C)C2=CC(=N)C=CC2=C(c2c(F)c(F)c(F)c(F)c2C(=O)O)c2ccc(N)cc21 [compound 72, 4,5,6,7^−Tetrafluoro-Si-rhodamine 110] | 0.0195 | 77,800 M^−1cm^−1 | 611 nm | 627 | 0.42 | – | – | – | – | – | – |

— patent US20250115628A1, “FLUORINATED FLUOROPHORES” (HOWARD HUGHES MEDICAL INSTITUTE, priority 2023, published 2025)
